Legend:
[1] = Stability and crystallization of the topical composition; assay type: physicochemical
Excerpt: Through experimentation it was discovered that a combination of sugars (e.g. mannitol with dextrose) with or without the addition of corn syrup (also known as glucose-fructose) would impede or completely eliminate the crystallization process, allowing for a higher concentration of these ingredients in solution.

[2] = tested on: rabbit ear; conditions: rating out of 5 (x/5); cited from earlier work

Row | Compound | comedogenicity [2] | also measured
1 | OCC(O)CO [Glycerin] |  | stability in solution / of the formula, shelf-life [1]: highly effective stabilizing measure
2 | OC[C@@H](O)[C@@H](O)[C@H](O)[C@H](O)CO [Mannitol, reference compound] |  | crystallization of Mannitol in cold environments ([1]; winter temperatures or refrigerator, combination of sugars): significantly mitigated or eliminated
3 | O=C1CC[C@@H](C(=O)[O-])N1.[Na+] [Sodium PCA, sodium L-pyroglutamate] | 0/5 | 
4 | CC12CCC(CC1=O)C2(C)C (centres unmarked) [camphor, reference compound] | 2/5 | 
5 | CCCCCCCCCCCCCCCCCCO [cetearyl alcohol] | 4/5 | 
6 | CCCCCCCCCCCCCCCCCC(=O)OCC(O)CO (centres unmarked) [glyceryl stearate] | 3/5 | 
7 | CCCCCCCCCCCCCC(=O)OC(C)C [isopropyl myristate] | 5/5 | 
8 | CCCCCCCCCCCCCCCC(=O)OCCCCCCCC [octyl palmitate] | 4/5 | 
9 | CC(C)=CCC/C(C)=C/CC/C(C)=C/CC/C=C(\C)CC/C=C(\C)CCC=C(C)C [squalene] | 1/5 | 
10 | caprylic/capric triglyceride | 0/5 | 
11 | cyclomethicone | 0/5 | 
